For orientation: IC50 means the midpoint of a concentration-inhibition curve.

The experiment addresses T1, human SLC6A19 and TMEM27 (Homo sapiens, UniProt Q695T7).
T1 construct: expressed in transfected cells
T1 sequence (Q695T7 1-634): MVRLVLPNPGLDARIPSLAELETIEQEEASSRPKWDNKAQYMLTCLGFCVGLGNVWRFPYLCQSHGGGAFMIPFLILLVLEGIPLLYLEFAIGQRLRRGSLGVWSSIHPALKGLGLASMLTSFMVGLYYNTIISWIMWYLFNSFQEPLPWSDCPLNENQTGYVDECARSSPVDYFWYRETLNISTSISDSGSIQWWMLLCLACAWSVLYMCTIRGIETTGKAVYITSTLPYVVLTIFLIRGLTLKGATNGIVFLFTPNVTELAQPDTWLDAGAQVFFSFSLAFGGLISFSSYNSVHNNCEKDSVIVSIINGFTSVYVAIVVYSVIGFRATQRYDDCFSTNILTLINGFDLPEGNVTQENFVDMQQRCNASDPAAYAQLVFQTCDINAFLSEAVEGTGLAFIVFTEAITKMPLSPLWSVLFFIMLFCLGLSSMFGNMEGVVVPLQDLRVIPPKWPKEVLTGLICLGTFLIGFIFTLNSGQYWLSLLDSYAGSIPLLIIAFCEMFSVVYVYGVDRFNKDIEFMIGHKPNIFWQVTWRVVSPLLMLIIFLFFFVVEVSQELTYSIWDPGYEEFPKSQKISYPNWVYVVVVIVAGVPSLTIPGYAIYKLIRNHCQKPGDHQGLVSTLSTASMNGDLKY
T1 sequence (Q9HBJ8 15-222 partner): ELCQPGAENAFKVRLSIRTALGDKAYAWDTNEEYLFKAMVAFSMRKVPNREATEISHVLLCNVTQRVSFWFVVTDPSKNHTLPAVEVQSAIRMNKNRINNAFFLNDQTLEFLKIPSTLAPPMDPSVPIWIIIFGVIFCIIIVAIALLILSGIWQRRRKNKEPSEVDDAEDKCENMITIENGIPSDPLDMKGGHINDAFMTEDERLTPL
Description: Radiolabelled (3H) leucine uptake in CHO cells with doxycycline-inducible expression of human SLC6A19 and TMEM27 (Example B-1). The experiment is classed as cell-based. To be noted: CHO cells with doxycycline-inducible expression of human SLC6A19 and TMEM27, read-out: SLC6A19_Radioligand Uptake Assay IC50. Put shortly: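 CHO cells were induced with doxycycline for 18 h at 37 °C, washed in HBSS, then exposed to compounds for 1 h: 8-point, 3-fold dilutions in duplicate, 0.5% DMSO final. Uptake measured by scintillation counting after 2 h shaking. Activity normalized with positive control as 0% and DMSO as 100%.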
As for `Cc1cc(COc2cc3[nH]c(CNC(=O)[C@H]4COCCN4C)cc3cc2Cl)on1` [Compound 302, (R)-N-((5-chloro-6-((3-methylisoxazol-5-yl)methoxy)-1H-indol-2-yl)methyl)-4-methylmorpholine-3-carboxamide], the IC50 stood at 7.11 µM.

Regarding `O=C(NCc1cc2cc(F)c(OCc3cscn3)cc2[nH]1)C1CCO1` (stereo not drawn) [Compound 264, N-((5-fluoro-6-(thiazol-4-ylmethoxy)-1H-indol-2-yl)methyl)oxetane-2-carboxamide], the IC50 is 0.243 µM.

As to `C[C@H](O)C(=O)NCc1cc2cc(Cl)c(OCc3cscn3)cc2[nH]1` [Compound 285, (S)-N-((5-chloro-6-(thiazol-4-ylmethoxy)-1H-indol-2-yl)methyl)-2-hydroxypropanamide], the IC50 amounted to 0.322 µM.

As to `Cc1cc(COc2cc3[nH]c(CNC(=O)C45CC(CO4)C5)cc3cc2Cl)on1` [Compound 301, N-((5-chloro-6-((3-methylisoxazol-5-yl)methoxy)-1H-indol-2-yl)methyl)-2-oxabicyclo[2.1.1]hexane-1-carboxamide], the IC50 stood at 0.327 µM.

For `[2H]C([2H])([2H])C(=O)NCc1cc2cc(Cl)c(OCc3cscn3)cc2[nH]1` [Compound 570, N-((5-chloro-6-(thiazol-4-ylmethoxy)-1H-indol-2-yl)methyl)acetamide-2,2,2-d3], the IC50 stood at 0.0804 µM.

`CC1(C(=O)NCc2cc3cc(Cl)c(OCC4CC4)cc3[nH]2)CC1` [Compound 633, N-((5-chloro-6-(cyclopropylmethoxy)-1H-indol-2-yl)methyl)-1-methylcyclopropane-1-carboxamide]: the IC50 was 0.181 µM.

In the case of `Cc1cc(COc2cc3[nH]c(CNC(=O)[C@@H]4CC(F)(F)CN4)cc3cc2Cl)on1` [Compound 666, (S)-N-((5-chloro-6-((3-methylisoxazol-5-yl)methoxy)-1H-indol-2-yl)methyl)-4,4-difluoropyrrolidine-2-carboxamide], the IC50 amounted to 2.99 µM.

Consider `Cc1cc(COc2cc3[nH]c(CNC(=O)C4(C#N)COC4)cc3cc2Cl)on1` [Compound 275, N-((5-chloro-6-((3-methylisoxazol-5-yl)methoxy)-1H-indol-2-yl)methyl)-3-cyanooxetane-3-carboxamide], for which the IC50 came out at 0.35 µM.

Turning to `CC(=O)NCc1cc2c(F)cc(OCc3cc(C)no3)cc2[nH]1` [Compound 527, N-((4-fluoro-6-((3-methylisoxazol-5-yl)methoxy)-1H-indol-2-yl)methyl)acetamide], the IC50 was determined as 4.61 µM.

In the case of `O=C(NCc1cc2cc(F)c(OCc3ccon3)cc2[nH]1)C1(C(F)(F)F)CC1` [Compound 139, N-((5-fluoro-6-(isoxazol-3-ylmethoxy)-1H-indol-2-yl)methyl)-1-(trifluoromethyl)cyclopropane-1-carboxamide], the IC50 came to 0.31 µM.

For `Cc1cc(COc2cc3[nH]c(CNC(=O)N4CCCC4C(F)F)cc3cc2Cl)on1` (racemic) [Compound 375, (S)-N-((5-chloro-6-((3-methylisoxazol-5-yl)methoxy)-1H-indol-2-yl)methyl)-2-(difluoromethyl)pyrrolidine-1-carboxamide and (R)-N-((5-chloro-6-((3-methylisoxazol-5-yl)methoxy)-1H-indol-2-yl)methyl)-2-(difluoromethyl)pyrrolidine-1-carboxamide], the IC50 is 0.948 µM.

With `COC(=O)NCc1cc2cc(F)c(OCc3cscn3)cc2[nH]1` [Compound 622, methyl ((5-fluoro-6-(thiazol-4-ylmethoxy)-1H-indol-2-yl)methyl)carbamate], the IC50 stood at 0.0848 µM.

For `CN1CC(C(=O)NCc2cc3cc(Cl)c(OCc4cscn4)cc3[nH]2)C1=O` (racemic) [Compound 546, (R)-N-((5-chloro-6-(thiazol-4-ylmethoxy)-1H-indol-2-yl)methyl)-1-methyl-2-oxoazetidine-3-carboxamide and (S)-N-((5-chloro-6-(thiazol-4-ylmethoxy)-1H-indol-2-yl)methyl)-1-methyl-2-oxoazetidine-3-carboxamide], the IC50 amounted to 4.48 µM.

As to `CNC(=O)NCc1cc2cc(F)c(OCc3cc(C)no3)cc2[nH]1` [Compound 210, 1-((5-fluoro-6-((3-methylisoxazol-5-yl)methoxy)-1H-indol-2-yl)methyl)-3-methylurea], the IC50 was 0.293 µM.

Consider `O=C(NCc1cc2cc(OC(F)(F)F)c(CCc3ccon3)cc2[nH]1)N1CCC1` [Compound 597, N-((6-(2-(isoxazol-3-yl)ethyl)-5-(trifluoromethoxy)-1H-indol-2-yl)methyl)azetidine-1-carboxamide], for which the IC50 turned out to be 0.307 µM.

In the case of `O=C(NCc1cc2cc(C3CC3)c(OCc3ccon3)cc2[nH]1)N1CCCC1` [Compound 654, N-((5-cyclopropyl-6-(isoxazol-3-ylmethoxy)-1H-indol-2-yl)methyl)pyrrolidine-1-carboxamide], the concentration for half-maximal inhibition (IC50) amounted to 0.537 µM.

`Cc1cc(COc2cc3[nH]c(CNC(=O)CN)cc3cc2Cl)on1` [Compound 617, 2-amino-N-((5-chloro-6-((3-methylisoxazol-5-yl)methoxy)-1H-indol-2-yl)methyl)acetamide]: the IC50 worked out at 3.52 µM.

As for `CC[C@H](O)C(=O)NCc1cc2cc(Cl)c(OCc3cc(C)no3)cc2[nH]1` [Compound 240, (S)-N-((5-chloro-6-((3-methylisoxazol-5-yl)methoxy)-1H-indol-2-yl)methyl)-2-hydroxybutanamide], the IC50 amounted to 0.49 µM.

As for `Cc1cc(COc2cc3[nH]c(CNC(=O)C(C)(F)F)cc3cc2Cl)on1` [Compound 440, N-((5-chloro-6-((3-methylisoxazol-5-yl)methoxy)-1H-indol-2-yl)methyl)-2,2-difluoropropanamide], the IC50 was 0.111 µM.

Regarding `CO[C@H]1C[C@@H](Oc2cc3[nH]c(CNC(C)=O)cc3cc2Cl)C1` [Compound 463, N-((5-chloro-6-((cis)-3-methoxycyclobutoxy)-1H-indol-2-yl)methyl)acetamide], the IC50 was > 8.73 µM.

As for `CC1(C(=O)NCc2cc3cc(Cl)c(OCc4ncon4)cc3[nH]2)CC1` [Compound 319, N-((6-((1,2,4-oxadiazol-3-yl)methoxy)-5-chloro-1H-indol-2-yl)methyl)-1-methylcyclopropane-1-carboxamide], the IC50 is 0.273 µM.

For `CC1(C(=O)NCc2cc3cc(F)c(COc4ccon4)cc3[nH]2)CC1` [Compound 612, N-((5-fluoro-6-((isoxazol-3-yloxy)methyl)-1H-indol-2-yl)methyl)-1-methylcyclopropane-1-carboxamide], the IC50 was 0.152 µM.

As for `Cc1cc(COc2cc3[nH]c(CNC(=O)CC(F)F)cc3cc2F)on1` [Compound 518, 3,3-difluoro-N-((5-fluoro-6-((3-methylisoxazol-5-yl)methoxy)-1H-indol-2-yl)methyl)propanamide], the IC50 is 0.179 µM.

As for `CCC(=O)NCc1cc2cc(F)c(OCc3ccon3)cc2[nH]1` [Compound 137, N-((5-fluoro-6-(isoxazol-3-ylmethoxy)-1H-indol-2-yl)methyl)propionamide], the IC50 was determined as 0.183 µM.

Regarding `Cc1cc(COc2cc3[nH]c(CNC(=O)c4ccno4)cc3cc2Cl)on1` [Compound 522, N-((5-chloro-6-((3-methylisoxazol-5-yl)methoxy)-1H-indol-2-yl)methyl)isoxazole-5-carboxamide], the IC50 came out at 0.199 µM.

As for `Cc1cc(COc2cc3[nH]c(CNC(=O)Cn4cccn4)cc3cc2Cl)on1` [Compound 521, N-((5-chloro-6-((3-methylisoxazol-5-yl)methoxy)-1H-indol-2-yl)methyl)-2-(1H-pyrazol-1-yl)acetamide], the IC50 is > 7.97 µM.

As to `Cc1cc(COc2cc3[nH]c(CNC(=O)C4(F)CCOC4)cc3cc2Cl)on1` (stereo not drawn) [Compound 305, N-((5-chloro-6-((3-methylisoxazol-5-yl)methoxy)-1H-indol-2-yl)methyl)-3-fluorotetrahydrofuran-3-carboxamide], the IC50 worked out at 0.209 µM.

For `O=C(CN1CCC1)NCc1cc2cc(Cl)c(OCc3cscn3)cc2[nH]1` [Compound 512, 2-(azetidin-1-yl)-N-((5-chloro-6-(thiazol-4-ylmethoxy)-1H-indol-2-yl)methyl)acetamide], the IC50 turned out to be 6.78 µM.

`Cc1cc(COc2cc3[nH]c(CNC(=O)C4(C)CC4)cc3cc2OC(F)F)on1` [Compound 606, N-((5-(difluoromethoxy)-6-((3-methylisoxazol-5-yl)methoxy)-1H-indol-2-yl)methyl)-1-methylcyclopropane-1-carboxamide]: the IC50 was determined as 0.32 µM.

Consider `Cc1cc(COc2cc3[nH]c(CNC(=O)C4(C)CC4)cc3cc2C(F)F)no1` [Compound 647, N-((5-(difluoromethyl)-6-((5-methylisoxazol-3-yl)methoxy)-1H-indol-2-yl)methyl)-1-methylcyclopropane-1-carboxamide], for which the IC50 is 0.68 µM.

For the origin of these results see patent US20240199546A1, “INHIBITORS OF SOLUTE CARRIER FAMILY 6A MEMBER 19 (SLC6A19) AND METHODS OF USE THEREOF” (Maze Therapeutics, Inc., priority 2022, published 2024).
